{"source": "patent US12364733B1", "about": "“Method for treating septic shock” (Inotrem, priority 2018, dated 2025)", "key": {"septic shock patients": {"test_system": "septic shock patients", "experiment": "Phase IIa clinical trial with nangibotide in septic shock patients: mortality", "type": "in vivo, human", "details": "for Sepsis-related mortality at 5 days, % / Sepsis-related mortality at 5 days, number of death / Sepsis-related mortality at 28 days, % / Sepsis-related mortality at 28 days, number of death / Sepsis-related mortality at 90 days, % / Sepsis-related mortality at 90 days, number of death: subgroup sTREM-1 at baseline above the median (433pg/mL); for All-cause mortality at 90 days, number of death / All-cause mortality at 5 days, % / All-cause mortality at 5 days, number of death / All-cause mortality at 28 days, % / All-cause mortality at 28 days, number of death / All-cause mortality at 90 days, %: whole population", "protocol": "This was a randomized, double-blind, two-stage, placebo-controlled study. As described in FIG. 7, the study was composed of 2 stages with a similar treatment regimen, in which 0.3, 1.0 or 3.0 mg/kg/h of nangibotide (corresponding to peptide LR12, having an amino acid sequence as set forth in SEQ ID NO: 9, also known as motrem) was tested versus placebo. All patients with a diagnosis of septic shock were considered for study participation. All potential study patients underwent standard care management procedures. Patients with evidence of septic shock according to the Sepsis-3 definition (Singer et al, JAMA 2016) were considered for inclusion (i.e., patients suffering from sepsis and having (i) persisting hypotension requiring vasopressors to maintain their mean arterial pressure ≥65 mm Hg and (ii) a serum lactate level >2 mmol/L (18 mg/dL) despite adequate volume resuscitation).\nAfter screening for eligibility, patients were randomized to one of the treatment arms. Then, they received either a 5 mg/kg loading dose of nangibotide over 15 minutes followed by a continuous intravenous (i.v.) infusion of nangibotide or a matching placebo on top of standard of care. Treatment with study drug was initiated as early as possible, but no later than 24 hours after the onset of septic shock, defined by the start of vasopressor therapy. Patients were treated until 12 (±2) hours after the resolution of their septic shock (defined as vasopressor withdrawal) with a maximum treatment duration of 5 days (120 hours).\n(§1) Adverse events (AEs) were coded using the MedDRA dictionary version 18.1. Treatment-emergent adverse events (TEAEs) were summarized and listed. Analysis was performed in 49 septic shock patients. The demographic and baseline characteristics were summarized in a descriptive fashion within each population: categorical variables were summarized by contingency tables (frequencies and percentages). sTREM-1 levels at day 1 were also described (mean, standard deviation, standard error, median, quartiles and range, minimum and maximum values). Mortality rates were reported by frequency and percentage. For continuous endpoints, i.e., the sequential organ failure assessment (SOFA), missing data were imputed using LOCF (Last Observation Carry-Forward). For time-to-event analyses, i.e., duration of invasive mechanical ventilation (IMV), duration of continuous renal replacement therapy (CRRT), survival, censored data techniques were utilized. In addition, a sensitivity analysis of time to event data (except survival) was performed using censoring at maximum limit for the corresponding observation period (i.e., either day 28 or day 90). […] The following comparisons were made: each nangibotide dose arm to placebo, all nangibotide doses combined versus placebo, and dose-response using an ordinal trend test. Exploratory composite endpoint: incidence (number and proportion) of patients alive at day 28 and free of vasopressor, free of IMV and free of CRRT were summarized by treatment and compared between treatments with a Fisher's exact test. For pharmacodynamic markers, log transformed data were represented as percentage change from baseline at day 5 or End of Infusion (EOI) if end of infusion was stopped before day 5. […] “All nangibotide” refers to analyses obtained by pooling data from 0.3, 1 and 3 mg/kg/h nangibotide-treated groups."}, "[1]": {"test_system": "circulating levels of endothelial injury markers, inflammatory markers and sTREM-1", "experiment": "Phase IIa clinical trial with nangibotide: pharmacodynamic markers", "type": "in vivo, human", "protocol": "The quantitative determination of sTREM-1 was carried out using the method described in Example 2.\nas §1"}, "[2]": {"details": "0.3 mg/kg/h (N = 6), 1st dose column"}, "[3]": {"details": "0.3 mg/kg/h (N = 6), 2nd dose column"}, "[4]": {"details": "0.3 mg/kg/h (N = 8), 3rd dose column"}, "[5]": {"details": "0.3 mg/kg/h (N = 12), 3rd dose column"}, "[6]": {"details": "0.3 mg/kg/h (N = 13), 1st dose column"}, "[7]": {"details": "1.0 mg/kg/h (N = 12), 2nd dose column"}, "[8]": {"details": "pooled (N = 37), listed as nangibotide"}}, "note": "“Also recorded” adds a separate entry of the source.", "data": [{"substance": "nangibotide (LQEEDAGEYGCM; TLT-1 peptide)", "values": [{"measurement": "mortality vs. placebo", "setting": "septic shock patients; nangibotide group, whole study", "result": "consistent trend in the proportion of death patients in favor of nangibotide-treated groups; also recorded: non-significant lower mortality"}, {"measurement": "Sepsis-related mortality at 5 days, %", "setting": "septic shock patients; [2]", "result": 17, "unit": "%"}, {"measurement": "Sepsis-related mortality at 5 days, number of death", "setting": "septic shock patients; [2]", "result": 1}, {"measurement": "Sepsis-related mortality at 28 days, %", "setting": "septic shock patients; [2]", "result": 17, "unit": "%"}, {"measurement": "Sepsis-related mortality at 28 days, number of death", "setting": "septic shock patients; [2]", "result": 1}, {"measurement": "Sepsis-related mortality at 90 days, %", "setting": "septic shock patients; [2]", "result": 17, "unit": "%"}, {"measurement": "Sepsis-related mortality at 90 days, number of death", "setting": "septic shock patients; [2]", "result": 1}, {"measurement": "Sepsis-related mortality at 5 days, %", "setting": "septic shock patients; [3]", "result": 17, "unit": "%"}, {"measurement": "Sepsis-related mortality at 5 days, number of death", "setting": "septic shock patients; [3]", "result": 1}, {"measurement": "Sepsis-related mortality at 28 days, %", "setting": "septic shock patients; [3]", "result": 17, "unit": "%"}, {"measurement": "Sepsis-related mortality at 28 days, number of death", "setting": "septic shock patients; [3]", "result": 1}, {"measurement": "Sepsis-related mortality at 90 days, %", "setting": "septic shock patients; [3]", "result": 17, "unit": "%"}, {"measurement": "Sepsis-related mortality at 90 days, number of death", "setting": "septic shock patients; [3]", "result": 1}, {"measurement": "Sepsis-related mortality at 5 days, number of death", "setting": "septic shock patients; [4]", "result": 2}, {"measurement": "Sepsis-related mortality at 28 days, number of death", "setting": "septic shock patients; [4]", "result": 2}, {"measurement": "Sepsis-related mortality at 90 days, number of death", "setting": "septic shock patients; [4]", "result": 2}, {"measurement": "Sepsis-related mortality at 5 days, %", "setting": "septic shock patients; pooled (N = 20)", "result": 20, "unit": "%"}, {"measurement": "Sepsis-related mortality at 5 days, number of death", "setting": "septic shock patients; pooled (N = 20)", "result": 4}, {"measurement": "Sepsis-related mortality at 28 days, %", "setting": "septic shock patients; pooled (N = 20)", "result": 20, "unit": "%"}, {"measurement": "Sepsis-related mortality at 28 days, number of death", "setting": "septic shock patients; pooled (N = 20)", "result": 4}, {"measurement": "Sepsis-related mortality at 90 days, %", "setting": "septic shock patients; pooled (N = 20)", "result": 20, "unit": "%"}, {"measurement": "Sepsis-related mortality at 90 days, number of death", "setting": "septic shock patients; pooled (N = 20)", "result": 4}, {"measurement": "All-cause mortality at 90 days, number of death", "setting": "septic shock patients; 0.3 mg/kg/h (N = 12), 2nd dose column", "result": 2}, {"measurement": "All-cause mortality at 5 days, %", "setting": "septic shock patients; [5]", "result": 17, "unit": "%"}, {"measurement": "All-cause mortality at 5 days, number of death", "setting": "septic shock patients; [5]", "result": 2}, {"measurement": "All-cause mortality at 28 days, %", "setting": "septic shock patients; [5]", "result": 25, "unit": "%"}, {"measurement": "All-cause mortality at 28 days, number of death", "setting": "septic shock patients; [5]", "result": 3}, {"measurement": "All-cause mortality at 90 days, %", "setting": "septic shock patients; [5]", "result": 33, "unit": "%"}, {"measurement": "All-cause mortality at 90 days, number of death", "setting": "septic shock patients; [5]", "result": 4}, {"measurement": "All-cause mortality at 5 days, %", "setting": "septic shock patients; [6]", "result": 7.7, "unit": "%"}, {"measurement": "All-cause mortality at 5 days, number of death", "setting": "septic shock patients; [6]", "result": 1}, {"measurement": "All-cause mortality at 28 days, %", "setting": "septic shock patients; [6]", "result": 15, "unit": "%"}, {"measurement": "All-cause mortality at 28 days, number of death", "setting": "septic shock patients; [6]", "result": 2}, {"measurement": "All-cause mortality at 90 days, %", "setting": "septic shock patients; [6]", "result": 32, "unit": "%"}, {"measurement": "All-cause mortality at 90 days, number of death", "setting": "septic shock patients; [6]", "result": 4}, {"measurement": "All-cause mortality at 5 days, %", "setting": "septic shock patients; [7]", "result": 8.3, "unit": "%"}, {"measurement": "All-cause mortality at 5 days, number of death", "setting": "septic shock patients; [7]", "result": 1}, {"measurement": "All-cause mortality at 28 days, %", "setting": "septic shock patients; [7]", "result": 8.3, "unit": "%"}, {"measurement": "All-cause mortality at 28 days, number of death", "setting": "septic shock patients; [7]", "result": 1}, {"measurement": "All-cause mortality at 90 days, %", "setting": "septic shock patients; [7]", "result": 17, "unit": "%"}, {"measurement": "All-cause mortality at 5 days, %", "setting": "septic shock patients; pooled (N = 37)", "result": 11, "unit": "%"}, {"measurement": "All-cause mortality at 5 days, number of death", "setting": "septic shock patients; pooled (N = 37)", "result": 4}, {"measurement": "All-cause mortality at 28 days, %", "setting": "septic shock patients; pooled (N = 37)", "result": 16, "unit": "%"}, {"measurement": "All-cause mortality at 28 days, number of death", "setting": "septic shock patients; pooled (N = 37)", "result": 6}, {"measurement": "All-cause mortality at 90 days, %", "setting": "septic shock patients; pooled (N = 37)", "result": 27, "unit": "%"}, {"measurement": "All-cause mortality at 90 days, number of death", "setting": "septic shock patients; pooled (N = 37)", "result": 10}, {"measurement": "All-cause mortality at 28 days, %", "setting": "septic shock patients; [8]", "result": 14, "unit": "%"}, {"measurement": "All-cause mortality at 28 days, number of death", "setting": "septic shock patients; [8]", "result": 5}, {"measurement": "Ang-2 level, change from baseline", "setting": "[1]; G2 subgroup (baseline sTREM-1 above the median 433 pg/mL) vs whole population and G1", "result": "trend toward a more pronounced decrease"}, {"measurement": "IL-6 level, change from baseline", "setting": "[1]; G2 subgroup vs whole population and G1", "result": "the same trend was observed"}, {"measurement": "circulating levels of endothelial injury markers (Ang-2, VCAM-1, VGEFR-1 and E-selectin), inflammatory markers (IL-8, IL-10, MCP-1, TNF-α and IL-10) and sTREM-1", "setting": "[1]; during the treatment, nangibotide-treated patients", "result": "trend towards a decrease"}, {"measurement": "sTREM-1 kinetics over time", "setting": "[1]; subgroup of patients with high baseline sTREM-1 values", "result": "trend towards a decrease in sTREM-1"}, {"measurement": "Ang-2 level, treatment effect", "setting": "[1]; whole population", "result": "no apparent treatment effect"}, {"measurement": "sTREM-1 kinetics over time", "setting": "[1]; whole population, day 5/EOI from baseline", "result": "no apparent changes over time"}]}]}
